The values that follow come from patent US20110151006A1, “STIMULI-RESPONSIVE HYDROGEL” (priority 2008, published 2011).

Assay [1] deals with T1, GyrB (gyrase subunit B) (Escherichia coli, UniProt P0AES6).
T1 construct: GyrB migrates predominantly at its predicted size of 27 kDa; made in house; host or cells: E. coli BL21 STAR (DE3)
The assay can be described thus: Antibiotic-triggered GyrB dimerization, DMS crosslinking and SDS-PAGE. Format: biochemical, E. coli. The conditions noted are these: GyrB:coumermycin=2:1, mol/mol; DMS crosslinking; denaturing PAGE; dimer at 54 kDa. As for the experimental part: The gene for E. coli gyrase subunit B (gyrB) is tagged with the coding sequence for six histidine residues. The coding region is placed under the control of the phage T7-derived promoter and expressed in E. coli as a soluble cytoplasmatic protein. GyrB is purified via the hexahistidine tag using Ni^2+-based affinity chromatography. Coumermycin-induced dimerization of genetically engineered GyrB is evaluated by incubating the protein in the presence or absence of coumermycin (GyrB:coumermycin=2:1, mol/mol) with subsequent addition of the amine-specific bifunctional crosslinking agent dimethyl-suberimidate (DMS) and analysis of the complexes on denaturing polyacrylamide gel electrophoresis. […]
Concentration of GyrB is analyzed by the Bradford method (Biorad, Muünchen, Germany, cat. no. 500-0006) using BSA as standard. […] Antibiotic-triggered dimerization of GyrB is analyzed by incubating GyrB in the presence coumermycin A1 (GyrB:coumermycin=2:1, mol/mol; Sigma, St. Louis, Mo., cat. no. C9270) for 30 min at room temperature following covalent crosslinking of the dimers by addition of dimethyl suberimidate×2HCl (DMS, SigmaAldrich, St. Louis, Mo., cat. no. 179523) at a 10-fold molar excess with respect to GyrB for 60 min at room temperature. The dimers are analyzed on SDS-PAGE. […]

Assay [2] has as its target T2, hexahistidine-tagged GyrB (Escherichia coli, UniProt P0AES6).
T2 construct: GyrB migrates predominantly at its predicted size of 27 kDa; made in house; host or cells: E. coli BL21 STAR (DE3)
As to the kind of experiment: Antibiotic-dependent hydrogel formation (GyrB released into buffer). Set-up: species or system E. coli. The conditions noted are these: GyrB:coumermycin=2:1 or ten-fold molar excess of novobiocin; mixed with poly(AAm-co-Ni2+-NTA-AAm); 12 hours in PBS. The source says: The protein is subsequently mixed with poly(AAm-co-Ni^2+-NTA-AAm) at a ratio of one GyrB per 11 Ni^2+ ions chelated in the polymer backbone.

Assay [3] concerns the target T1, GyrB (gyrase subunit B). The assay can be described thus: Ultrafiltration study of coumermycin-induced GyrB dimerization. Format: biochemical, E. coli. The conditions noted are these: 50 kDa molecular weight cut-off filter; GyrB:coumermycin=2:1; GyrB without coumermycin gave 54%.

For the substance coumermycin A1, the GyrB dimer formation result on GyrB (gyrase subunit B) [1] is “substantial dimer formation”. Besides, the “GyrB-polymer complexes released into the buffer / hydrogel formation” value in assay [2] was “significantly reduced”. Besides, the “GyrB protein in filtrate” value on GyrB (gyrase subunit B) [3] is on record as 2.8%.
